Assay results published in ChEMBL document CHEMBL1201862, “PubChem BioAssay data set” (2004).
Activity calls are given as the source filed them.

Tests used:
[1] = microbe, parasite or virus in culture; assay type: functional; settings: Mycobacterium tuberculosis
Beta-galactosidase [2] = biological target: T1, Beta-galactosidase (Escherichia coli, UniProt Q8VNN2); experiment: detection-enzyme interference by beta-gal modulators – biochemical, E. coli enzyme, set 3, artefact control for CCR6 antagonist project, dose response (AID 504712); assay type: functional
T1 sequence (Q8VNN2 whole entry): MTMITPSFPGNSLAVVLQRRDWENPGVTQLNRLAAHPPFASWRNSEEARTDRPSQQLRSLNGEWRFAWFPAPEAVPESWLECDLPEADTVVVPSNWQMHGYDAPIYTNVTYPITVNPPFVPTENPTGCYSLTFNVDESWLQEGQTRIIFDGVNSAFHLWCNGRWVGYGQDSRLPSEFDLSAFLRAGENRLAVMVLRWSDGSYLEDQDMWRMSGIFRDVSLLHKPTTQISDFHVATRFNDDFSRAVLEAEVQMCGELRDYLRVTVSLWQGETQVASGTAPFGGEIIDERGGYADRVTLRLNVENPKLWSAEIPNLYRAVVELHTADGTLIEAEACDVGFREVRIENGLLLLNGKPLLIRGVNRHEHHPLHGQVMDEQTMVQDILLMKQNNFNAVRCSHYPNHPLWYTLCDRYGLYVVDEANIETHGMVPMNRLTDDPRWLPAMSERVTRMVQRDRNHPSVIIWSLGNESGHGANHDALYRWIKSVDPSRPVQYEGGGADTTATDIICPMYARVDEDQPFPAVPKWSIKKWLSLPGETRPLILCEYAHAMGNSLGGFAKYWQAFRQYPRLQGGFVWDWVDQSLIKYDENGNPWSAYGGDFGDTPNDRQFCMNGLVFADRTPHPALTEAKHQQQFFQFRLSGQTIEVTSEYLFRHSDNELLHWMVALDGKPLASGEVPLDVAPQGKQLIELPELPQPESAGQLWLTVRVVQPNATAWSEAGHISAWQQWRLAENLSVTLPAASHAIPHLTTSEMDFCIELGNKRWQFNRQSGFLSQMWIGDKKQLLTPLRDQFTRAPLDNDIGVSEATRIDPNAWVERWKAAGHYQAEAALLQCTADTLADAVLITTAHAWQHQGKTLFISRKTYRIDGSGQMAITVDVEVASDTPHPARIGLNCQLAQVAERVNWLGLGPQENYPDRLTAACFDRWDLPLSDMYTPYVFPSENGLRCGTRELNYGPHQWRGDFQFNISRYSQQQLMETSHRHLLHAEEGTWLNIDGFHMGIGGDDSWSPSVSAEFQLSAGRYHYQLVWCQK

[3] = NIH3T3 cell viability loss – ATP luminescence, mouse fibroblasts, counter-screen, dose response (AID 2010); assay type: functional, cell-based;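 also: cells exposed to compound for about 90 hours before reading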
[4] = Trypanosoma cruzi growth suppression in host cells – NIH3T3 host cells, beta-gal luminescence, confirmation (AID 2044); assay type: functional, cell-based;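 also: intracellular parasites grown in NIH/3T3 mouse fibroblasts as host cells; luminescent beta-galactosidase reporter signal from transgenic T. cruzi replicating inside host cells; inhibitors lower the luminescence signal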
[5] = biological target: Alkaline phosphatase, placental type (Homo sapiens, UniProt P05187); experiment: human placental alkaline phosphatase inhibition – biochemical, luminescence, confirmation (AID 1512); assay type: functional
[6] = biological target: Glyceraldehyde-3-phosphate dehydrogenase (Homo sapiens, UniProt P04406)
Glyceraldehyde-3-phosphate dehydrogenase, sequence (P04406 whole entry): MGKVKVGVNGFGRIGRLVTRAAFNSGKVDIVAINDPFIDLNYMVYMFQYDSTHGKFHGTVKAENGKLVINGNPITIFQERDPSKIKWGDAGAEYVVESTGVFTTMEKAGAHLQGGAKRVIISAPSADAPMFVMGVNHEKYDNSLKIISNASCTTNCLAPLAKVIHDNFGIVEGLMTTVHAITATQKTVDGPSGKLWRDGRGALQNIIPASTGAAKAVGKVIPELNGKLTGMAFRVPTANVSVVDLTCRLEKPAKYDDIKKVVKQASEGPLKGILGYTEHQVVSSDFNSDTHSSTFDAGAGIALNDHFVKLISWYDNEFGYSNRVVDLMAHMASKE

[7] = inhibition of ADAM10 peptide cleavage – biochemical, FRET peptide substrate, recombinant human ADAM10, selectivity assay for ADAM17 exosite inhibitor project, dose response (AID 743259);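 also: ADAM10 enzyme cleaving a FRET peptide substrate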
[8] = biological target: Disintegrin and metalloproteinase domain-containing protein 17 (Homo sapiens, UniProt P78536); experiment: exosite inhibitors of ADAM17, dose response, biochemical (AID 743260)
[9] = biological target: G-protein coupled receptor 55 (Homo sapiens, UniProt Q9Y2T6); experiment: selective activators of receptor GPR55 – imaging, U2OS cells, beta-arrestin-GFP redistribution, primary screen (AID 1961); assay type: functional
[10] = biological target: T2, Short transient receptor potential channel 4 (Mus musculus, UniProt Q9QUQ5); experiment: potentiation of DAMGO-evoked TRPC4 calcium signal – cell-based, HEK293 TRPC4/mu-opioid, Fluo-4 calcium, EC20 DAMGO, dose response (AID 434941); assay type: functional
T2 sequence (Q9QUQ5 whole entry): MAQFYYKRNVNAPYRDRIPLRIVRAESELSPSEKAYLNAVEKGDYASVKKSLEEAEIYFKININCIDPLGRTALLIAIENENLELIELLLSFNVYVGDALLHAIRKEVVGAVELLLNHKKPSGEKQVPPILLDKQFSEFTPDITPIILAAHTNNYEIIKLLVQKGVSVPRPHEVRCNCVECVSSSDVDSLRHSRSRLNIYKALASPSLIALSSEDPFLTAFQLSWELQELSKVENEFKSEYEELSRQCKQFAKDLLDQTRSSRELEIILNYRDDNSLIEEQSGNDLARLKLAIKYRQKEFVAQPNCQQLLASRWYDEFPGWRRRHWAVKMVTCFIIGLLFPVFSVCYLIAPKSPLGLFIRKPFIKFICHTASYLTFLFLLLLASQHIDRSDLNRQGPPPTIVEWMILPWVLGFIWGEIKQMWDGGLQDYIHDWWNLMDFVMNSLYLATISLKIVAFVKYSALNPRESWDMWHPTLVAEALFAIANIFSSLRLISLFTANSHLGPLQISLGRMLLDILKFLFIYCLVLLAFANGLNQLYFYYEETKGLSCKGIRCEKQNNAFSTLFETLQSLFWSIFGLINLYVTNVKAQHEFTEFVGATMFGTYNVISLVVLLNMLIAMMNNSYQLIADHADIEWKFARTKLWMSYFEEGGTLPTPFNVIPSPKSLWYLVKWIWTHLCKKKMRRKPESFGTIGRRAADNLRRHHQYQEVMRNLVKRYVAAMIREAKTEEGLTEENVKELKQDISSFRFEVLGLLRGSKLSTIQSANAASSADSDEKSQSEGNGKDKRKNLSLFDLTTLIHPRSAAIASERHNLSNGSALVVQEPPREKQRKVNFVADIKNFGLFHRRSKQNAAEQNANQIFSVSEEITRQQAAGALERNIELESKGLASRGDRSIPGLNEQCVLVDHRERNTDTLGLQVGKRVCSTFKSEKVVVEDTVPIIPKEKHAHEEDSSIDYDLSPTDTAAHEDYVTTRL

Beta-galactosidase [11] = biological target: T1, Beta-galactosidase; assay type: functional
[12] = biological target: T3, Kappa-type opioid receptor (Homo sapiens, UniProt P41145); assay type: functional
T3 sequence (P41145 whole entry): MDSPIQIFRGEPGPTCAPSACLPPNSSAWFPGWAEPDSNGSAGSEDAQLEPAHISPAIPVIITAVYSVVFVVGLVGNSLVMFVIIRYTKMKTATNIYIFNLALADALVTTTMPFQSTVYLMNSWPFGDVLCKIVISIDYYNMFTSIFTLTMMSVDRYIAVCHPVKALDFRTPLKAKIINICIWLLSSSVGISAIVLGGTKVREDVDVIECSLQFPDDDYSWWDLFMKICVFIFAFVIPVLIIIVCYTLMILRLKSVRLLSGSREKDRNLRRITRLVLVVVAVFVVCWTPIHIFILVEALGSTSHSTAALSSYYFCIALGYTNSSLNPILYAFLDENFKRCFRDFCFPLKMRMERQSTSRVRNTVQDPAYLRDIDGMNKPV

[13] = biological target: T3, Kappa-type opioid receptor; assay type: functional; remark: listed apart in the source
[14] = biological target: T4, Dual specificity protein phosphatase 3 (Homo sapiens, UniProt P51452); experiment: SAR VHR1 absorbance Assay for In Vitro dose response studies. [Related pubchem assays (depositor defined):AID1654, AID1661, AID1878, AID1992, AID2004]
T4 sequence (P51452 whole entry): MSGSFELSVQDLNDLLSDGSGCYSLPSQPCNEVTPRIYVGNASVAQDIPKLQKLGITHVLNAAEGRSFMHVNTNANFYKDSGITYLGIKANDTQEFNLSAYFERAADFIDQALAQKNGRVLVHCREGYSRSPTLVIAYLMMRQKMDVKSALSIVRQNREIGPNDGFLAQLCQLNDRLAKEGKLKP

[15] = biological target: T5, Dual specificity protein phosphatase 6 (Rattus norvegicus, UniProt Q64346); assay type: functional;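 also: confirmatory in vitro dose-response testing of MKP-3 inhibition; recombinant His-tagged MKP-3 made in E. coli BL21 with OMFP substrate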
T5 sequence (Q64346 whole entry): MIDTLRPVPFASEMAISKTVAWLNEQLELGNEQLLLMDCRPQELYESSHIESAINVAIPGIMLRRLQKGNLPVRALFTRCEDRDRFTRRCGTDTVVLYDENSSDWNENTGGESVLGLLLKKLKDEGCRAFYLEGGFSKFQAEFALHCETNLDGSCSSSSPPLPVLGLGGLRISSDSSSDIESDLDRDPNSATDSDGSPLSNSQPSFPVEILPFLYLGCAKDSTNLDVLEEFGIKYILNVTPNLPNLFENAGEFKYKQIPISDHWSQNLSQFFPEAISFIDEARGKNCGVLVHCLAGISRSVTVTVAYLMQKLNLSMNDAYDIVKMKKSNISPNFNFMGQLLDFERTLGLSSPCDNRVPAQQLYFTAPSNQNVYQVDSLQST

[16] = biological target: Tyrosine-protein phosphatase non-receptor type 12 (Homo sapiens, UniProt Q05209); experiment: SAR Selectivity Analysis of small molecule inhibitors of PEST using pCAP in a fluorescence assay. [Related pubchem assays (depositor defined):AID1779, AID1784, AID2135]; assay type: functional
[17] = biological target: T4, Dual specificity protein phosphatase 3; experiment: SAR VHR1 Fluorescent Assay for In Vitro dose response studies. [Related pubchem assays (depositor defined):AID1654, AID1661, AID1878, AID1992, AID2004, AID2070, AID2085]; assay type: functional
[18] = biological target: T6, Tyrosine-protein phosphatase non-receptor type 22 (Homo sapiens, UniProt Q9Y2R2); experiment: inhibition of lymphoid tyrosine phosphatase LYP – biochemical, pCAP fluorogenic substrate, fluorescence, set 3, SAR follow-up (AID 449727); assay type: functional
T6 sequence (Q9Y2R2 whole entry): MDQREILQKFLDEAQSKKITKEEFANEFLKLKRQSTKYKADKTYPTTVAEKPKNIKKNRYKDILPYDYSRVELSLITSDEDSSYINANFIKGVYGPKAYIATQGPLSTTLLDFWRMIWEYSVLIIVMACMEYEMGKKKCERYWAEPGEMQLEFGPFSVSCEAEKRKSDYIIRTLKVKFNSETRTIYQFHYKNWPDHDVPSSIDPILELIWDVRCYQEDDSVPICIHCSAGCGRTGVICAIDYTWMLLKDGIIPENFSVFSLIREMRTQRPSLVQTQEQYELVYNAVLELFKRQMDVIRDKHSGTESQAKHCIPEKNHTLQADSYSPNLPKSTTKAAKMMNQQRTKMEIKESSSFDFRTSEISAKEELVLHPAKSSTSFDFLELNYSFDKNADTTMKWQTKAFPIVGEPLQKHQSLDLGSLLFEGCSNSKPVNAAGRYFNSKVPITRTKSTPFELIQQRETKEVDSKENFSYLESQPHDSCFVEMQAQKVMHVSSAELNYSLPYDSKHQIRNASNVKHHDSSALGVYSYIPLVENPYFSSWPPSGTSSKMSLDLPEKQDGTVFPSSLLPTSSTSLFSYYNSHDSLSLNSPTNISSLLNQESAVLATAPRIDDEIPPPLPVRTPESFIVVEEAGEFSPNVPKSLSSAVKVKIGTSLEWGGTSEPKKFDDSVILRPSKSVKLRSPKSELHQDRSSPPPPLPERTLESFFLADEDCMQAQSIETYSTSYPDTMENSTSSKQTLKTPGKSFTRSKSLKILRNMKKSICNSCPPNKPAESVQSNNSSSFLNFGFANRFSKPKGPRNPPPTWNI

[19] = biological target: T7, Tyrosine-protein phosphatase non-receptor type 7 (Homo sapiens, UniProt P35236); experiment: redox-active compounds inhibiting HePTP phosphatase – biochemical, fluorescence, mechanism study (AID 2068); assay type: functional
T7 sequence (P35236 whole entry): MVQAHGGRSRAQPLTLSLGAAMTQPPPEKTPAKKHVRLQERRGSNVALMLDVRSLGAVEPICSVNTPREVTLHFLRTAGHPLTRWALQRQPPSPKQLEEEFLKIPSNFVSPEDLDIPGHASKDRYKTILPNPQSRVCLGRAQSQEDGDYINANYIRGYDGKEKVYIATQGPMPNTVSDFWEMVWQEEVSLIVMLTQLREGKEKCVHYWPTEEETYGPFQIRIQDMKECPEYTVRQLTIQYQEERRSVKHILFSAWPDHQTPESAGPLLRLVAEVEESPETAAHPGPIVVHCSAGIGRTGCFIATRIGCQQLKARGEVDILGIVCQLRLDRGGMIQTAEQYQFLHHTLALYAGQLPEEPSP

[20] = biological target: T6, Tyrosine-protein phosphatase non-receptor type 22; experiment: SAR LYP1 Fluorescent Assay using OMFP substrate for In Vitro dose response studies - Set 3. [Related pubchem assays (depositor defined):AID1779, AID1784, AID2140, AID2686]; assay type: functional
[21] = biological target: T8, Voltage-gated N-type calcium channel alpha-1B subunit/Amyloid beta A4 precursor protein-binding family A member 1 (Homo sapiens, UniProt Q00975+Q02410); assay type: protein assay
T8 sequence (Q00975 whole entry): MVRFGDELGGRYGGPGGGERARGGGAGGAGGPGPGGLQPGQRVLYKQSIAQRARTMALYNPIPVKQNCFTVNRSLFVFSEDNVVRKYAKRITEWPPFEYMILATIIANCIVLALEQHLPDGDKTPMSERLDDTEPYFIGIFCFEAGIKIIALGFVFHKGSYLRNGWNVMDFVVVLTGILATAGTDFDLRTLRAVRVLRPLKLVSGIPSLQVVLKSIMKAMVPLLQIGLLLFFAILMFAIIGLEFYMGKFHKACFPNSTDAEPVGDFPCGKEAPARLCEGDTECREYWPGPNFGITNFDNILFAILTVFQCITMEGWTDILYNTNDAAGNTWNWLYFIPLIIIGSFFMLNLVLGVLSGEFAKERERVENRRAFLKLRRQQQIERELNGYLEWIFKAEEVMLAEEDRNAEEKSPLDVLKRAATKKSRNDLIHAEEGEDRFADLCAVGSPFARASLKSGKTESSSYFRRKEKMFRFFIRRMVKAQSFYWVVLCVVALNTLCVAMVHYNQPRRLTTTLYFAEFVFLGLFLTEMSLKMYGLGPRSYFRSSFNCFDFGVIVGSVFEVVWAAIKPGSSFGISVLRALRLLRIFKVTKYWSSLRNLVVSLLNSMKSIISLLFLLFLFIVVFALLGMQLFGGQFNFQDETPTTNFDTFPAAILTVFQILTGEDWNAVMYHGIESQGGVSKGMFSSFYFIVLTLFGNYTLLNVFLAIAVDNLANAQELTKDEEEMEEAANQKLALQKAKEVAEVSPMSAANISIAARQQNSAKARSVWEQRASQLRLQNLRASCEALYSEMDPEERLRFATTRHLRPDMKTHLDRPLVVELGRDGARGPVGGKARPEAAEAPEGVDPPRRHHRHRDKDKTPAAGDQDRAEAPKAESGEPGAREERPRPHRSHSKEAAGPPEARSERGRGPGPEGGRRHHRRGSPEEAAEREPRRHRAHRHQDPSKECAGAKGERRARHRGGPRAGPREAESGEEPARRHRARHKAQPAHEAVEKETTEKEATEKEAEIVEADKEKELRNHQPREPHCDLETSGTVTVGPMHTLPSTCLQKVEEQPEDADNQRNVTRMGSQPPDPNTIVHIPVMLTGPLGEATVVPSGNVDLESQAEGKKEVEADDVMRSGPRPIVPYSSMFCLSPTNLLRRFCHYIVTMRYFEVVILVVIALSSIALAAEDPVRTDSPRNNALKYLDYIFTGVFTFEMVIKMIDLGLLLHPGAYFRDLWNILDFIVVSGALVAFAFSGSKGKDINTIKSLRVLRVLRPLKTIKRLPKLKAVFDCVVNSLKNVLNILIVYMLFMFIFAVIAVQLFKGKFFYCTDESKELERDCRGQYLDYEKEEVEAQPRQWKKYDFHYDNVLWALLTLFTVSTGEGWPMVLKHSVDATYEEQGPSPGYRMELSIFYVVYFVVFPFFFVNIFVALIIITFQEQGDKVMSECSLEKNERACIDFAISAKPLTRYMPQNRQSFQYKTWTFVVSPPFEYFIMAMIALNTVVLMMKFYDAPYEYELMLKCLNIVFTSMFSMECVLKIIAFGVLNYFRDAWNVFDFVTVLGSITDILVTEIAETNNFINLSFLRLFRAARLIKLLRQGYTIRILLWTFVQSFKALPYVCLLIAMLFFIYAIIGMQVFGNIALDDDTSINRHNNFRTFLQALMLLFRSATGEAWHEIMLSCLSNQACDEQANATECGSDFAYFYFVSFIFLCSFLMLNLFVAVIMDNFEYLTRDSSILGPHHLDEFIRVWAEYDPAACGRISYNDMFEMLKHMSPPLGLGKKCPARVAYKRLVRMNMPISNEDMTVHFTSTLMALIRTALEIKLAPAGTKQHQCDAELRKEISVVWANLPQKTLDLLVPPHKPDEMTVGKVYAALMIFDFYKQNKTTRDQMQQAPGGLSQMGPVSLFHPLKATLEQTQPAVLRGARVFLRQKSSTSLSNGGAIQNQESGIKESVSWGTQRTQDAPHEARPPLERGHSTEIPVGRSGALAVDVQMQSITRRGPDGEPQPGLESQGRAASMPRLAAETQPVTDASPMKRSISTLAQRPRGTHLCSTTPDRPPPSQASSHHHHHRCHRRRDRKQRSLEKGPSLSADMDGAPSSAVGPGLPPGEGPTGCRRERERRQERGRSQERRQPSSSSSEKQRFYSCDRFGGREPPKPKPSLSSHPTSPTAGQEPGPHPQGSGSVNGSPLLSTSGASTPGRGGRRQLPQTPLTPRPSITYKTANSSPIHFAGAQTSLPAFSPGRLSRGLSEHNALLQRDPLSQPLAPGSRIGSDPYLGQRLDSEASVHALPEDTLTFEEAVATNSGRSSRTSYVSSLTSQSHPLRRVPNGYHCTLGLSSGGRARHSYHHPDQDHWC
T8 sequence (Q02410 whole entry): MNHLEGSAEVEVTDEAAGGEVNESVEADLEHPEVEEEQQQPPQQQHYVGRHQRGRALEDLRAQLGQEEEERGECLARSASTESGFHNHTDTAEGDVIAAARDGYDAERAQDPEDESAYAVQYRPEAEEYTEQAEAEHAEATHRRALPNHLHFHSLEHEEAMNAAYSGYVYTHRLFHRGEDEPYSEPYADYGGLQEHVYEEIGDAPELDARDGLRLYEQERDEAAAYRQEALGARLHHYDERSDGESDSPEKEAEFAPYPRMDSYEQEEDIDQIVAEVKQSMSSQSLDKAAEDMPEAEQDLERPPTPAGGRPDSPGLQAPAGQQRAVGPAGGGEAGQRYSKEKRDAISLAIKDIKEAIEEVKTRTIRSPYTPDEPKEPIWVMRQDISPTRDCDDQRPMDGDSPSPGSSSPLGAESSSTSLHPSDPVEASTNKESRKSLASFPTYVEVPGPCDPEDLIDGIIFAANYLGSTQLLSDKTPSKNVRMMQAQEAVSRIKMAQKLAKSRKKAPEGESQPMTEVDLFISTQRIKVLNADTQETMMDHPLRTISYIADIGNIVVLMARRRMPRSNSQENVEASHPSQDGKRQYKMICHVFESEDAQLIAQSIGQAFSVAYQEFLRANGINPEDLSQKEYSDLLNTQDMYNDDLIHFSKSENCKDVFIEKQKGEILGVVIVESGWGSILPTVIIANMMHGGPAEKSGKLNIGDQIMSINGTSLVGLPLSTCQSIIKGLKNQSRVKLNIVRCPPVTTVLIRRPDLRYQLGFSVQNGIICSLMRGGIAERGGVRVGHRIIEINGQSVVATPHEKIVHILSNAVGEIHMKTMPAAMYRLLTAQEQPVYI

[22] = biological target: T8, Voltage-gated N-type calcium channel alpha-1B subunit/Amyloid beta A4 precursor protein-binding family A member 1; assay type: protein assay; remark: listed apart in the source
Estrogen receptor = biological target: T9, Estrogen receptor (Homo sapiens, UniProt P03372);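 also: potency for inhibiting coactivator peptide recruitment to the receptor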
T9 sequence (P03372 whole entry): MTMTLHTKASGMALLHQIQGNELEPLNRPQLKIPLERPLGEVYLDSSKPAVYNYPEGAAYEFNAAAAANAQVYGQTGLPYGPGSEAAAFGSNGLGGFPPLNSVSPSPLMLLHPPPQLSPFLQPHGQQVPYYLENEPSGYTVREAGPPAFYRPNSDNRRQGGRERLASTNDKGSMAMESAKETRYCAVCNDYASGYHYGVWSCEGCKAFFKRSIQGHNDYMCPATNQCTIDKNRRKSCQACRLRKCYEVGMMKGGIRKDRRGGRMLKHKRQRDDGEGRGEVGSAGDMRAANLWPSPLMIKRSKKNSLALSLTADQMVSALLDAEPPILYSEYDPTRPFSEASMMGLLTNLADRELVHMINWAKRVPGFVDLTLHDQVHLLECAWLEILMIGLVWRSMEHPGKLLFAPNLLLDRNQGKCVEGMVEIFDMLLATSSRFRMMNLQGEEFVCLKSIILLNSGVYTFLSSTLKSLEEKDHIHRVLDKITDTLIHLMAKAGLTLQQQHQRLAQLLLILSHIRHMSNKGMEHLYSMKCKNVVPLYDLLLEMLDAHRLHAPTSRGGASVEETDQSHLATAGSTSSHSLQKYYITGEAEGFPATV

[23] = biological target: T3, Kappa-type opioid receptor; experiment: SAR analysis of small molecule antagonists of the kappa opioid receptor via a luminescent beta-arrestin assay - Set 4. [Related pubchem assays (depositor defined):AID1777, AID1778, AID1785, AID1786, AID1966, AID2133, AID2136, AID2285]; assay type: functional
[24] = biological target: T3, Kappa-type opioid receptor; experiment: SAR analysis of Antagonists of the Kappa Opioid Receptor (KOR) using an Image-Based Assay - Set 4. [Related pubchem assays (depositor defined):AID1777, AID1785]; assay type: functional
[25] = biological target: Delta-type opioid receptor (Homo sapiens, UniProt P41143); experiment: SAR Analysis of Antagonists of the DOR Receptor using an Image-Based Assay - Set 3. [Related pubchem assays (depositor defined):AID1777, AID1785]; assay type: functional;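 also: U2OS cells expressing DOR1 and beta-arrestin GFP stimulated with 100 nM SNC80; imaging of GFP-tagged beta-arrestin moving into spots after receptor activation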
Mu-type opioid receptor = Mu-type opioid receptor (Homo sapiens, UniProt P35372); experiment: SAR Analysis of Antagonists of the MOR Receptor using an Image-Based Assay - Set 3. [Related pubchem assays (depositor defined):AID1777, AID1785, AID1786, AID1966, AID2133, AID2136, AID2284, AID2285, AID2420]; assay type: functional

Compound: C=CCN(CC=C)C(=S)NC(=O)c1ccc(-c2ccccc2)cc1
- CC50 [1]: > 40 µM (active)
- IC50 (Beta-galactosidase [2]): > 66.6 µM (inactive)
- EC50 [3]: 9.2 µM (active)
- EC50 [4]: 1.82 µM (active)

Compound: CC(C)NC(=O)c1cc(-c2cc(F)c(Cl)cc2Cl)n[nH]1
- IC50 [5]: > 100 µM (inactive)
- IC50 [6]: > 100 µM (not active)

Compound: Cc1ccc(S(=O)(=O)N(Cc2ccc(Cl)cc2)c2ccccc2C(=O)NCc2ccco2)cc1
- IC50 [7]: > 7.72 µM (active)
- IC50 [8]: > 69.5 µM (inactive)
- EC50 [9]: > 32 µM (inactive)

Compound: O=[N+]([O-])c1cc(C(F)(F)F)ccc1NC1CCN(Cc2ccccc2)C1 (configuration not stated)
- EC50 [10]: 0.67 µM (active)

Compound: CCCCC/C(=N/O)c1c(C)[nH]c2ccccc12
- EC50 (Beta-galactosidase [11]): > 31.5 µM (inactive)
- IC50 [12]: > 32 µM
- IC50 [13]: > 31.5 µM (inactive)

Compound: Cc1cc(OCC(=O)O)ccc1S(C)(=O)=O
- IC50 [14]: > 100 µM (inactive)
- IC50 [15]: > 99 µM (inactive)
- IC50 [16]: > 100 µM (inactive)
- IC50 [17]: > 99 µM (inactive)
- IC50 [18]: > 100 µM (inactive)
- IC50 [19]: > 100 µM (inactive)
- IC50 [20]: > 100 µM (inactive)

Compound: C=CCOc1ccc(CC2C(=O)N(C)C(=O)N(C)C2=O)cc1
- IC50 [21]: 4.93 µM (active)
- IC50 [22]: > 50 µM (inactive)
- IC50 (Estrogen receptor): > 50 µM (not active)

Compound: CC(C)N(CCNC(=O)c1ccc(CNS(=O)(=O)c2ccc(C(C)(C)C)cc2)cc1)Cc1ccccc1
- IC50 [23]: 2.66 µM (active)
- IC50 [24]: 0.79 µM (active)
- IC50 [25]: > 32 µM (inactive)
- IC50 (Mu-type opioid receptor): > 32 µM (inactive)
